Assay results from patent US20220233652A1, “Pharmaceutical Compositions Comprising Integration-Promoting Peptides” (priority 2018, published 2022).
Read-outs that look alike come from different tables or passages of the source.

Assays:
HIV-1 = system: HIV-1
Description: This is a phase I/IIa pilot—Proof of Concept, dose escalation study.
Three cohorts of 3-6 patients (per cohort) received twice a week the Multiple Ascending Doses (MAD*) for up to 8 weeks to evaluate safety, clinical dose and preliminary efficacy for a duration of up to 6 weeks. Interim analysis was performed to decide on the safety of the low dose and continue to a higher dose SC administration. Study Duration: 1 year including screening, treatment and post treatment follow up
Cohort 1: Three to six (3-6) patients, each one received twice a week the decided MAD* for up to 8 weeks (up to 16 doses per patient). Subcutaneous dose: LOW; 0.05, mg/kg, with escalation to 0.2 mg/kg body weight at week 2-4. Cohort 2: Three to six (3-6) patients, each one received twice a week the decided MAD* for up to 8 weeks (up to 16 doses per patient). Subcutaneous dose: MEDIUM; 0.1 mg/kg, with escalation to 0.3 mg/kg body weight at week 2-4. Cohort 3: Three to six (3-6) patients, each one received twice a week the decided MAD* for up to 8 weeks (up to 16 doses per patient). Subcutaneous dose: HIGH; 0.2 mg/kg, with escalation to 0.4 mg/kg body weight at week 2-4. Interim analysis was performed to decide on the safety of all cohorts' doses and continue to a higher dose, up to 0.2 mg/kg for Cohort 1, up to 0.3 mg/kg for Cohort 2 and up to 0.4 mg/kg for Cohort 3, SC administration.
Effectiveness of Gammora assessed by reduced Viral load (by 0.5 LOG; Viral Suppression). • 1. Mean Change in CD4+ Cell Count as a Measure of Efficacy and Safety. • 2. Reduced viral protein p24 antigen. • 3. Functional Assessment of HIV Infection (FAHI) questionnaire.

[1] = system: PANC-1 human pancreatic cancer cells; experiment: Pancreatic cancer tumor mice model; assay type: in vivo, athymic nude mice; settings: day 17
Description: Two models of cancer were generated: lung cancer and pancreatic cancer. About 5×10^6 of 1975 human lung cancer cells per 0.1 ml PBS per mouse were injected to male 7 weeks old athymic nude mice (n=30). The cells were injected, subcutaneously at one site on the back of the mice. About 5×10^6 PANC-1 human pancreatic cancer cells per 0.1 ml PBS per mouse were injected to male 7 weeks old athymic nude mice (n=22). The cells were injected, subcutaneously at one site on the back of the mice. When tumors were palpable (˜0.3-0.5 cm^3), the mice were randomly divided into three groups (Table 27) and the viruses and/or peptides were injected, twice a week for two weeks.
The first day of the study was defined as ‘Day 1’. The animals were administrated IP with either Vehicle (PBS or Formulation), lentiviral particles and SC with test items according to Table 27 on days 1, 4, 8 and 11. Body weight and tumor volume were checked on days 3, 7, 11, 14 and 17 (the latter was measured with a caliper). At the end of the experiment, on day 17, the mice were anesthetized and then sacrificed, and the tumors were removed, as well as lung, spleen, kidney and liver.

[2] = 5 weeks INS 0.2-0.4 mg/kg SC twice a week + lopinavir 800 mg plus ritonavir 200 mg daily

Question: What does the source list for WTAVQMAVFIHNFKRK [INS]?
Answer: HIV-1 RNA count (HIV-1; [2]): below 300 copies/mL; Reduction in viral load from baseline (HIV-1; [2]): up to 99%; Reduction in viral load from baseline (HIV-1; most patients, first 5 weeks of SC administration, INS alone): up to 90%; Reduction of weight of tumors relative to control ([1]; lentiviral particles + INS 1.25 mg/kg SC): 25%; Reduction of weight of tumors relative to control ([1]; lentiviral particles + INS 2.5 mg/kg SC): 50%
